Source: patent US12569686B2, “Chronically implantable systems and methods for affecting cardiac contractility and/or relaxation” (Cardionomix, Inc., priority 2020, dated 2026)

Test system: normal, non-HF ovine model
Test: Change in ventricle contractility (max dP/dt as surrogate) and beat-by-beat correlation of right and left ventricle contractility after an injection
Assay type: in vivo
Details: pressure max (dP/dt) used as surrogate for contractility, calcium at 5 mL
Source text: The correlation was a heartbeat-by-heartbeat analysis. Pressure measurements, taken by a Millar catheter comprising a MEMS pressure sensor, in units of max (dP/dt) was used as a surrogate for contractility. The first change, a dobutamine injection, provided a very high contractility increase greater than 500%. The average correlation between right ventricle contractility and left ventricle contractility was very good at 0.91, where 1.00 is a perfect correlation. Accordingly, if a subject is given a dobutamine injection, measuring changes to right ventricle contractility can provide accurate information about changes to left ventricle contractility. The first change was repeated three times. The second change, calcium injection at 5 mL, provided a contractility increase of about 20%. […] The average correlation between right ventricle contractility and left ventricle contractility using a Millar (MEMS) sensor on a catheter was very good at 0.91. The average correlation between right ventricle contractility and left ventricle contractility using a fluid-filled lumen of a Swan-Ganz catheter in communication with an external pressure sensor was also very good at 0.87. […]

Which results are given for calcium [Calcium Injection]?
Contractility % Increase: ~20%; Contractility % Increase (listed as calcium injection): about 20%
